Test system: CT26 cells
Assay: CT26 colon carcinoma flank tumor model, Gemzar and 2F8
Format: in vivo, Mice
Conditions: Kaplan-Meier; Gemzar 80 mg/kg Day 15; 2F8 alone 0.4 mg I.P. Days 15, 16 and 17; FIG. 2
Procedure: One group of control mice was untreated. The group of mice receiving Gemzar was treated with 80 mg/kg Gemzar on Day 15.
GraphPad Prism 4 software was used to plot Kaplan-Meir survival curves and to confirm the median survival times for the groups.

Q: For `Nc1ccn([C@@H]2O[C@H](CO)[C@@H](O)C2(F)F)c(=O)n1` [Gemzar, gemcitabine], which median survival is on record?
A: The median survival was 31 days.

From patent US8591886B2, “Combination therapies employing GITR binding molecules” (GITR, Inc., priority 2007, dated 2013)
